Test results taken from patent US11325900B2, “5-(pyrimidin-4-yl)thiazol-2-yl urea derivatives as therapeutic agents” (AUCENTRA HOLDINGS PTY LTD, priority 2018, dated 2022).

How the values were obtained:
[1] = system: HCT-116; test: Cell viability assay (MTT, solid tumour cell lines), 72 h growth inhibition; format: cell-based; settings: Homo sapiens, HCT-116 cells
Text: (§1) Compounds from Example 1 may be subjected to a standard MTT (3-(4,5-dimethylthiazol-2-yl)-2,5-diphenyltetrazolium bromide) and resazurin assays on solid tumour cell lines and leukemia cell lines, respectively, as previously reported (Wang S et al., J Med Chem 47:1662-1675, 2004 and Diab S e al. CheMedChem 9:962-972, 2014). Compound concentrations required to inhibit 50% of cell growth (GI50) can be calculated using non-linear regression analysis.

[2] = target: T1, CDK8/CycC (Homo sapiens, UniProt P49336); test: Radiometric protein kinase assay (33PanQinase Activity Assay, ProQinase); format: biochemical; settings: 1.0 μM ATP, 1.0 μg/50 μL substrate RBER-IRStide, duplicate measurements, read-out: CDK8 Kinase inhibition IC50
T1 construct: purchased ProQinase GmbH, Freiburg, Germany
Protocol: The kinase activity of CDK8/CycC was measured using a radiometric protein kinase assay (33PanQinase® Activity Assay) by ProQinase GmbH, Freiburg, Germany, with the protocols shown at www.proqinase.com/sites/default/files/public/uploads/WildtypeProfiler/radiometric_assay_v05_2012_manual.pdf. IC50 determination (8.3 nM with 1.0 μM ATP and 1.0 μg/50 μL of substrate RBER-IRStide) was performed as duplicate measurements and calculated using Quattro Workflow V3.1.1 (Quattro Research GmbH, Germany). Apparent inhibition constants (Ki) values were calculated from Km (ATP) and IC50 values for the respective kinases.

[3] = system: MV-4-11; test: Cell viability assay (resazurin, leukemia cell lines), 72 h growth inhibition; format: cell-based; settings: Homo sapiens, MV4-11, MV-4-11 cells
Text: as §1

T1 sequence (P49336 whole entry): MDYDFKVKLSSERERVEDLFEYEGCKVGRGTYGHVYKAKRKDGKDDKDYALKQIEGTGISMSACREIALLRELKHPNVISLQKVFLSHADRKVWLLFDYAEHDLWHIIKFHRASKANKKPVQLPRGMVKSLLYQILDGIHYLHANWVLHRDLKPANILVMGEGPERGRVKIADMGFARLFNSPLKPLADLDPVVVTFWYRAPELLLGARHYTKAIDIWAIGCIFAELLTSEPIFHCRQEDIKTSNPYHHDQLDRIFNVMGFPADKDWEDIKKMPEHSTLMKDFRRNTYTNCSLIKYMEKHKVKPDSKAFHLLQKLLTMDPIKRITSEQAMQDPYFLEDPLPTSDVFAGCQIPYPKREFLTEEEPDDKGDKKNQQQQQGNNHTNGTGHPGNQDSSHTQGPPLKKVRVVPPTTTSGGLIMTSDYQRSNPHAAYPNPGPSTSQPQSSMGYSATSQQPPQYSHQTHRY
T1 sequence (P24863 whole entry partner): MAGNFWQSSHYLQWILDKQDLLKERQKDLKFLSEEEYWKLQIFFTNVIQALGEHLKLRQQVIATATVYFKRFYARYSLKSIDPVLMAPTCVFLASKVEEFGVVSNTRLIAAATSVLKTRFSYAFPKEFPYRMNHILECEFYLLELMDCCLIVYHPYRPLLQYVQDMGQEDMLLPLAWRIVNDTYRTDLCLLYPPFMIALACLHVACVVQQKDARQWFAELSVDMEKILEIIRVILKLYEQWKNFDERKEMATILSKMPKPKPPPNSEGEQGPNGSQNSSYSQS

SMILES	GI50 [1]	IC50 [2]	GI50 [3]
CNc1nccc(-c2sc(NC(=O)Nc3cccc(S(=O)(=O)C(F)(F)F)c3)nc2C)n1 [Compound 23, 1-(4-Methyl-5-(2-(methylamino)pyrimidin-4-yl)-thiazol-2-yl)-3-(3-((trifluoromethyl)-sulfonyl)phenyl)urea]	4960 ± 120 nM	26 nM	3170 ± 530 nM
CNc1nccc(-c2sc(NC(=O)Nc3ccc(CN4CCC(N)CC4)c(C(F)(F)F)c3)nc2C)n1 [Compound 39, 1-(4-((4-Aminopiperidin-1-yl)methyl)-3-(trifluoromethyl)-phenyl)-3-(4-methyl-5-(2-(methylamino)pyrimidin-4-yl)thiazol-2-yl)urea]	–	8 nM	96 nM
Cc1nc(NC(=O)Nc2ccc(CN3CCOCC3)c(C(F)(F)F)c2)sc1-c1ccnc(C(C)C)n1 [Compound 79, 1-(5-(2-Isopropylpyrimidin-4-yl)-4-methylthiazol-2-yl)-3-(4-(morpholinomethyl)-3-(trifluoromethyl)phenyl)urea]	–	206 nM	998 ± 60 nM
Cc1nc(NC(=O)Nc2ccc(CN3CCN(C)CC3)c(C(F)(F)F)c2)sc1-c1ccnc(N(C)C)n1 [Compound 49, 1-(5-(2-(Dimethylamino)pyrimidin-4-yl)-4-methylthiazol-2-yl)-3-(4-((4-methylpiperazin-1-yl)methyl)-3-(trifluoromethyl)phenyl)urea]	–	82 nM	< 1 nM
CCN1CCN(Cc2ccc(NC(=O)Nc3nc(C)c(-c4ccnc(N)n4)s3)cc2C(F)(F)F)CC1 [Compound 62, 1-(5-(2-Aminopyrimidin-4-yl)-4-methylthiazol-2-yl)-3-(4-((4-ethylpiperazin-1-yl)methyl)-3-(trifluoromethyl)phenyl)urea]	–	14 nM	1 nM
CNc1nccc(-c2cnc(NC(=O)Nc3ccc(CN4CCN(C(C)C)CC4)c(C(F)(F)F)c3)s2)n1 [Compound 60, 1-(4-((4-Isopropylpiperazin-1-yl)methyl)-3-(trifluoromethyl)phenyl)-3-(5-(2-(methylamino)pyrimidin-4-yl)thiazol-2-yl)urea]	–	16 nM	7 nM
CC(=O)N1CCN(Cc2ccc(NC(=O)Nc3nc(C)c(-c4ccnc(C(C)C)n4)s3)cc2C(F)(F)F)CC1 [Compound 77, 1-(4-((4-Acetylpiperazin-1-yl)methyl)-3-(trifluoromethyl)phenyl)-3-(5-(2-isopropylpyrimidin-4-yl)-4-methylthiazol-2-yl)urea]	–	169 nM	712 ± 20 nM
CCNc1nccc(-c2sc(NC(=O)Nc3ccc(CN4CCN(C(C)=O)CC4)c(C(F)(F)F)c3)nc2C)n1 [Compound 55, 1-(4-((4-Acetylpiperazin-1-yl)methyl)-3-(trifluoromethyl)-phenyl)-3-(5-(2-(ethylamino)-pyrimidin-4-yl)-4-methylthiazol-2-yl)urea]	–	35 nM	214 ± 120 nM
CNc1nccc(-c2sc(NC(=O)Nc3ccc(CN4CCN(C(C)C)CC4)c(C(F)(F)F)c3)nc2C)n1 [Compound 34, 1-(4-((4-Isopropylpiperazin-1-yl)methyl)-3-(trifluoromethyl)-phenyl)-3-(4-methyl-5-(2-(methylamino)pyrimidin-4-yl)thiazol-2-yl)urea]	–	11 nM	< 1 nM
CNc1ncc(C#N)c(-c2sc(NC(=O)Nc3ccc(CN4CCN(C(C)C)CC4)c(C(F)(F)F)c3)nc2C)n1 [Compound 73, 1-(5-(5-Cyano-2-(methylamino)pyrimidin-4-yl)-4-methylthiazol-2-yl)-3-(4-((4-isopropylpiperazin-1-yl)methyl)-3-(trifluoromethyl)phenyl)urea]	–	59 nM	482 ± 30 nM
CCN1CCN(Cc2ccc(NC(=O)Nc3ncc(-c4ccnc(NC)n4)s3)cc2C(F)(F)F)CC1 [Compound 59, 1-(4-((4-Ethylpiperazin-1-yl)methyl)-3-(trifluoromethyl)phenyl)-3-(5-(2-(methylamino)pyrimidin-4-yl)thiazol-2-yl)urea]	–	12 nM	1 nM
CNc1ncc(Cl)c(-c2sc(NC(=O)Nc3ccc(CN4CCN(C(C)=O)CC4)c(C(F)(F)F)c3)nc2C)n1 [Compound 68, 1-(4-((4-Acetylpiperazin-1-yl)methyl)-3-(trifluoromethyl)phenyl)-3-(5-(5-chloro-2-(methylamino)pyrimidin-4-yl)-4-methylthiazol-2-yl)urea]	–	80 nM	4250 ± 420 nM
CNc1ncc(C#N)c(-c2sc(NC(=O)Nc3ccc(CN4CCN(C)CC4)c(C(F)(F)F)c3)nc2C)n1 [Compound 71, 1-(5-(5-Cyano-2-(methylamino)pyrimidin-4-yl)-4-methylthiazol-2-yl)-3-(4-((4-methylpiperazin-1-yl)methyl)-3-(trifluoromethyl)phenyl)urea]	–	50 nM	200 ± 20 nM
CCNc1nccc(-c2sc(NC(=O)Nc3ccc(CN4CCC(C)CC4)c(C(F)(F)F)c3)nc2C)n1 [Compound 57, 1-(5-(2-(Ethylamino)pyrimidin-4-yl)-4-methylthiazol-2-yl)-3-(4-((4-methylpiperidin-1-yl)methyl)-3-(trifluoromethyl)phenyl)urea]	–	49 nM	6160 ± 140 nM

Continued by falling IC50 [2], values first:

GI50 [1]	IC50 [2]	GI50 [3]	SMILES
–	82 nM	3420 ± 230 nM	CNc1ncc(C#N)c(-c2sc(NC(=O)Nc3ccc(CN4CCOCC4)c(C(F)(F)F)c3)nc2C)n1 [Compound 75, 1-(5-(5-Cyano-2-(methylamino)pyrimidin-4-yl)-4-methylthiazol-2-yl)-3-(4-(morpholinomethyl)-3-(trifluoromethyl)phenyl)urea]
–	32 nM	76 ± 10 nM	CNc1nccc(-c2sc(NC(=O)Nc3ccc(CN4CCN(S(C)(=O)=O)CC4)c(C(F)(F)F)c3)nc2C)n1 [Compound 36, 1-(4-Methyl-5-(2-(methylamino)-pyrimidin-4-yl)thiazol-2-yl)-3-(4-((4-(methylsulfonyl)piperazin-1-yl)methyl)-3-(trifluoromethyl)-phenyl)urea]
–	20 nM	176 ± 40 nM	CNc1nccc(-c2cnc(NC(=O)Nc3ccc(CN4CCN(C(C)=O)CC4)c(C(F)(F)F)c3)s2)n1 [Compound 61, 1-(4-((4-Acetylpiperazin-1-yl)methyl)-3-(trifluoromethyl)phenyl)-3-(5-(2-(methylamino)pyrimidin-4-yl)thiazol-2-yl)urea]
–	16 nM	< 1 nM	CCNc1nccc(-c2sc(NC(=O)Nc3ccc(CN4CCN(C(C)C)CC4)c(C(F)(F)F)c3)nc2C)n1 [Compound 54, 1-(5-(2-(ethylamino)pyrimidin-4-yl)-4-methylthiazol-2-yl)-3-(4-((4-isopropylpiperazin-1-yl)methyl)-3-(trifluoromethyl)phenyl)urea]
–	15 nM	< 1 nM	CCNc1nccc(-c2sc(NC(=O)Nc3ccc(CN4CCN(C)CC4)c(C(F)(F)F)c3)nc2C)n1 [Compound 52, 1-(5-(2-(Ethylamino)pyrimidin-4-yl)-4-methylthiazol-2-yl)-3-(4-((4-methylpiperazin-1-yl)methyl)-3-(trifluoromethyl)phenyl)urea]
–	9 nM	2270 ± 680 nM	CNc1nccc(-c2sc(NC(=O)Nc3cccc(OC)c3)nc2C)n1 [Compound 16, 1-(3-Methoxyphenyl)-3-(4-methyl-5-(2-(methylamino)pyrimidin-4-yl)thiazol-2-yl)urea]
854 ± 10 nM	6 nM	–	CCOc1cccc(NC(=O)Nc2nc(C)c(-c3ccnc(NC)n3)s2)c1 [Compound 19, 1-(3-Ethoxyphenyl)-3-(4-methyl-5-(2-(methylamino)pyrimidin-4-yl)thiazol-2-yl)urea]
